Measured values reported in patent US10206907B2, “Compounds useful for the treatment of degenerative and inflammatory diseases” (GALAPAGOS NV, priority 2008, dated 2019).

Key:
[1] = system: JAK-STAT signalling in HeLa cells; test: JAK-STAT signalling assay (OSM-triggered pSTAT1(2)-luciferase reporter in HeLa cells); type: cell-based; conditions: Homo sapiens; HeLa cells, OSM-triggered pSTAT1(2)-luciferase reporter; read-out: STAT signalling EC50
Procedure, shortened: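 Read-out is oncostatin M–driven pSTAT1(2)-luciferase activity, corrected by co-transfected LacZ β-galactosidase, in transiently transfected HeLa cells cultured overnight at 37 °C, 10% CO2. Inhibition percentages against positive and negative controls were plotted across doses to derive EC50.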

[2] = target: Recombinant human TYK2 catalytic domain (Homo sapiens (Human), UniProt P29597); test: TYK2 inhibition assay; type: biochemical; conditions: semi-quantitative score
Procedure, shortened: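 Recombinant human TYK2 catalytic domain; radiometric kinase reaction run 90 min at 30° C, stopped with phosphoric acid, washed and counted by scintillation.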

[3] = system: Collagen antibody-induced arthritis; test: MAB model (collagen antibody-induced arthritis); type: in vivo, mouse; conditions: 30 mg/kg p.o., DBA/J mice
Protocol: The MAB model allows a rapid assessment of the modulation of an RA-like inflammatory response by therapeutics ([…]. Nature Protocols (2006) 2512-2516: Collagen antibody-induced arthritis). DBA/J mice were injected i.v. with a cocktail of mAbs directed against collagen II. One day later, compound treatment was initiated (vehicle: 10% (v/v) HPβCD). Three days later, mice received an i.p. LPS injection (50 μg/mouse), resulting in a fast onset of inflammation. Compound treatment was continued until 10 days after the mAb injection. Inflammation was read by measuring paw swelling and recording the clinical score of each paw. The cumulative clinical arthritis score of four limbs was presented to show the severity of inflammation. A scoring system is applied to each limb using a scale of 0-4, with 4 being the most severe inflammation. • 0 Symptom free • 1 Mild, but definite redness and swelling of one type of joint such as the ankle or wrist, or apparent redness and swelling limited to individual digits, regardless of the number of affected digits • 2 Moderate redness and swelling of two or more types of joints • 3 Severe redness and swelling of the entire paw including digits • 4 Maximally inflamed limb with involvement of multiple joints

Recombinant human TYK2 catalytic domain, sequence (P29597 871-1187): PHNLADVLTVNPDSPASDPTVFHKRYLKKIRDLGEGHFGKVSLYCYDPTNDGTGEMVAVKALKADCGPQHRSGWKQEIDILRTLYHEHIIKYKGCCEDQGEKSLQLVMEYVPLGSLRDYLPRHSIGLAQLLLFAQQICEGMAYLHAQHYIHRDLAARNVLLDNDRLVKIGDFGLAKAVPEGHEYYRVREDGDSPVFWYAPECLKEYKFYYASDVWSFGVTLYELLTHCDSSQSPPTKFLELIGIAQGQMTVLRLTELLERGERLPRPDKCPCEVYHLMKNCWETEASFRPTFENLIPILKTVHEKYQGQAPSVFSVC

Row | SMILES | EC50 [1] [µM] | IC50 [2] [µM] | clinical score [3] | inflammation [3]
1 | CC1CCCN(C(=O)c2ccc(-c3cccc4nc(NC(=O)C5CC5)nn34)cc2)C1 (stereo not drawn) [Compound 145, N-(5-(4-(3-methylpiperidine-1-carbonyl)phenyl)-[1,2,4]triazolo[1,5-a]pyridin-2-yl)cyclopropanecarboxamide] | 0.501 to 1 | – | – | –
2 | CC1CN(C(=O)c2ccc(-c3cccc4nc(NC(=O)C5CC5)nn34)cc2)CC(C)O1 (stereo not drawn) [Compound 215, Cyclopropanecarboxylic acid {5-[4-(2,6-dimethyl-morpholine-4-carbonyl)-phenyl]-[1,2,4]triazolo[1,5-a]pyridin-2-yl}-amide] | 0.101 to 0.5 | – | – | –
3 | CC1(C)CN(C(=O)c2ccc(-c3cccc4nc(NC(=O)C5CC5)nn34)cc2)C1 [Compound 330, Cyclopropanecarboxylic acid (5-[4-(3,3-dimethyl-azetidine-1-carbonyl)-phenyl]-[1,2,4]triazolo[1,5-a]pyridin-2-yl}-amide] | 0.001 to 0.1 | – | – | –
4 | O=C(Nc1nc2cccc(-c3ccc(CN4CCOCC4)cc3)n2n1)C1CC1 [Compound 18, N-(5-(4-(morpholinomethyl)phenyl)-[1,2,4]triazolo[1,5-a]pyridin-2-yl)cyclopropanecarboxamide] | > 1 | > 1 | – | –
5 | N#Cc1ccc(COc2ccc(-c3cccc4nc(NC(=O)C5CC5)nn34)cc2)cn1 [Compound 176, N-(5-(4-((6-cyanopyridin-3-yl)methoxy)phenyl)-[1,2,4]triazolo[1,5-a]pyridin-2-yl)cyclopropanecarboxamide] | 0.101 to 0.5 | < 0.1 | reduced the clinical score with statistical significance | significantly reduced inflammation
